According to PubChem BioAssay AID248 (DTP/NCI, 2004):
“And” between values parts separate entries of the source, which are not always exact repeats. Identical values can stand only once. Inconclusive results and toxic doses are left out.

System: L1210 leukemia ip in BDF1 mice, survival T/C
Assay: NCI In Vivo Anticancer Drug Screen. Data for tumor model L1210 Leukemia (intraperitoneal) in B6D2F1 (BDF1) mice
Conditions: endpoint: mean survival time, higher = longer survival
How it was run: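 Tumor was transplanted into mice, which were then dosed with test compound or vehicle alone. Survival was recorded for each group, and the treated figure was expressed relative to the control figure.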

[1] = dose: 100.0 mg/kg/injection, schedule: Q01DX009 (ip), vehicle: saline with Tween-80
[2] = dose: 100.0 mg/kg/injection, schedule: Q04DX003 (ip), vehicle: saline with Tween-80
[3] = dose: 200.0 mg/kg/injection, schedule: Q01DX009 (ip), vehicle: saline with Tween-80
[4] = dose: 400.0 mg/kg/injection, schedule: Q01DX009 (ip), vehicle: saline with Tween-80
[5] = dose: 50.0 mg/kg/injection, schedule: Q01DX009 (ip), vehicle: saline with Tween-80
[6] = dose: 25.0 mg/kg/injection, schedule: Q04DX003 (ip), vehicle: saline with Tween-80

SMILES: O=C(O)C1C(C(=O)O)C2(c3ccccc3)c3ccccc3C12 (stereo unspecified)
- T/C (dose: 9.38 mg/kg/injection, schedule: Q01DX001 (ip), vehicle: other): 92 % of control
- T/C (dose: 18.75 mg/kg/injection, schedule: Q01DX001 (ip), vehicle: other): 92 % of control
- T/C (dose: 37.5 mg/kg/injection, schedule: Q01DX001 (ip), vehicle: other): 102 % of control

SMILES: OC1C2c3ccccc3C(c3c2cc(F)c2ccccc32)C1O (stereo unspecified)
- T/C (dose: 37.5 mg/kg/injection, schedule: Q01DX001 (ip), vehicle: Klucel (hydroxypropylcellulose) (HPC)): 102 % of control
- T/C (dose: 75.0 mg/kg/injection, schedule: Q01DX001 (ip), vehicle: Klucel (hydroxypropylcellulose) (HPC)): 96 % of control
- T/C (dose: 150.0 mg/kg/injection, schedule: Q01DX001 (ip), vehicle: Klucel (hydroxypropylcellulose) (HPC)): 104 % of control

SMILES: CC1C(=O)C2C(CCC3=CC(=O)CCC32C)C2CCC(C(C)(C)OCCO)C12C (stereo unspecified)
- T/C (dose: 50.0 mg/kg/injection, schedule: Q01DX001 (sc), vehicle: steriod suspending solution): 105 % of control
- T/C (dose: 100.0 mg/kg/injection, schedule: Q01DX001 (sc), vehicle: steriod suspending solution): 102 % of control
- T/C (dose: 200.0 mg/kg/injection, schedule: Q01DX001 (sc), vehicle: steriod suspending solution): 107 % of control
- T/C (dose: 400.0 mg/kg/injection, schedule: Q01DX001 (sc), vehicle: steriod suspending solution): 96 % of control

SMILES: c1cc(OC2CCCCO2)ccc1OC1CCCCO1 (stereo unspecified)
- T/C [1]: 98 % of control
- T/C [2]: 95 % of control
- T/C [3]: 97 % of control
- T/C (dose: 200.0 mg/kg/injection, schedule: Q04DX003 (ip), vehicle: saline with Tween-80): 93 % of control
- T/C [4]: 97 % of control
- T/C (dose: 400.0 mg/kg/injection, schedule: Q04DX003 (ip), vehicle: saline with Tween-80): 95 % of control

SMILES: CCCCN(C)/N=N/c1[nH]ncc1C(=O)OCC
- T/C (dose: 52.0 mg/kg/injection, schedule: Q01DX009 (ip), vehicle: other): 119 % of control
- T/C (dose: 78.0 mg/kg/injection, schedule: Q01DX009 (ip), vehicle: other): 119 % of control
- T/C (dose: 266.0 mg/kg/injection, schedule: Q01DX007 (ip), vehicle: saline): 154 % of control
- T/C (dose: 266.0 mg/kg/injection, schedule: Q01DX009 (ip), vehicle: other): 168 % of control
- T/C (dose: 400.0 mg/kg/injection, schedule: Q01DX007 (ip), vehicle: saline): 174 % of control

SMILES: CC1CC(=O)NC(N)=N1 (stereo unspecified)
- T/C (dose: 100.0 mg/kg/injection, schedule: Q01DX Z (ip), vehicle: saline): 110 % of control
- T/C (dose: 200.0 mg/kg/injection, schedule: Q01DX Z (ip), vehicle: saline): 92 % of control

SMILES: Cc1cc([N+](=O)[O-])cc(S(=O)(=O)O)c1C
- T/C [5]: 102 % of control
- T/C [1]: 98 % of control and 92 % of control
- T/C [3]: 98 % of control and 106 % of control
- T/C [4]: 98 % of control

SMILES: COc1cc2cc(C)c(I)cc2cc1OC
- T/C (dose: 75.0 mg/kg/injection, schedule: Q04DX003 (ip), vehicle: Klucel (hydroxypropylcellulose) (HPC)): 97 % of control
- T/C (dose: 150.0 mg/kg/injection, schedule: Q04DX003 (ip), vehicle: Klucel (hydroxypropylcellulose) (HPC)): 97 % of control
- T/C (dose: 300.0 mg/kg/injection, schedule: Q04DX003 (ip), vehicle: Klucel (hydroxypropylcellulose) (HPC)): 103 % of control

SMILES: CCCCCCC1N(C)CCCN1C
- T/C (dose: 25.0 mg/kg/injection, schedule: Q01DX009 (ip), vehicle: saline with Tween-80): 98 % of control
- T/C [6]: 100 % of control
- T/C [5]: 94 % of control
- T/C (dose: 50.0 mg/kg/injection, schedule: Q04DX003 (ip), vehicle: saline with Tween-80): 98 % of control
- T/C [1]: 86 % of control
- T/C [2]: 100 % of control and 103 % of control

SMILES: CCCC[S][Sn-]([CH2]CCC)([CH2]CCC)[CH2]CCC
- T/C (dose: 6.25 mg/kg/injection, schedule: Q04DX003 (ip), vehicle: saline with Tween-80): 101 % of control
- T/C (dose: 12.5 mg/kg/injection, schedule: Q04DX003 (ip), vehicle: saline with Tween-80): 109 % of control
- T/C (dose: 25.0 mg/kg/injection, schedule: Q04DX002 (ip), vehicle: saline with Tween-80): 93 % of control
- T/C [6]: 98 % of control

SMILES: N/C(=N\[N+](=O)[O-])Nc1nc2ccccc2s1
- T/C (dose: 100.0 mg/kg/injection, schedule: Q04DX002 (ip), vehicle: Klucel (hydroxypropylcellulose) (HPC)): 113 % of control
